Assay results reported in paper PMC9697080 (International Journal of Molecular Sciences, 2022).
Values joined by “and” are separate entries in the source; they are usually repeats but may differ in a detail not shown here. Equal entries are not always repeated.

How the values were obtained:
HIV-1 protease [1] = biological target: T1, HIV-1 protease (Human immunodeficiency virus type 1 group M subtype B, UniProt P04585); test: biochemical; assay type: biochemical; conditions: for IC50: IC50 (HIV-1 protease inhibition)
[2] = Cytotoxicity assay (CCK8 Assay Kit); conditions: human
[3] = test system: VSV-G-pseudotyped HIV-1 (pHIV-1NL4-3); test: microbe, parasite or virus in culture; assay type: cell-based; conditions: for inhibition at 10 µM: Human immunodeficiency virus 1, SUP-T1, read-out: Inhibition (%) (10 μM), effects on late-stage HIV-1; for EC50: Human immunodeficiency virus 1, read-out: Mean EC50 HIV-1NL4-3
HEK293T cells = test: Cytotoxicity assay (CCK8 Assay Kit); conditions: HEK293T (293T) cells, CCK8, 24 h
[4] = test system: DRV-resistant HIV-1 variant pHIV-1DRV^RS (V32I, L33F, I54M, I84V); test: microbe, parasite or virus in culture; assay type: cell-based; conditions: for EC50: Human immunodeficiency virus 1, read-out: Mean EC50 HIVDRV^Rs
HIV-1 protease [5] = biological target: T1, HIV-1 protease; test: biochemical; assay type: binding
[6] = test system: influenza virus strain H5N1; conditions: read-out: IC50 against influenza H5N1; cited from earlier work
[7] = test system: influenza virus strain H3N2; parameters: method as in PMID 26077494; conditions: read-out: IC50 against influenza H3N2; cited from earlier work
[8] = test system: influenza virus strain H1N1; parameters: method as in PMID 26077494; conditions: read-out: IC50 against influenza H1N1; cited from earlier work
[9] = HEK293T cells, CC50, HEK293T (293T) cells, CCK8, 24 h

| SMILES | IC50 (HIV-1 protease [1]) | CC50 at 24 h [2, 9] [nM] | inhibition at 10 µM [3] [%] | further results |
| --- | --- | --- | --- | --- |
| COc1ccc(S(=O)(=O)N(CC(C)C)C[C@@H](O)[C@H](Cc2ccccc2)NC(=O)c2ccccc2O)cc1 [15a] | 3.34 ± 0.28 nM | > 100000 | 98 ± 2 | – |
| COc1ccc(S(=O)(=O)N(CC(C)C)C[C@@H](O)[C@H](Cc2ccccc2)NC(=O)c2ccc(Cl)cc2O)cc1 [15b] | 7.82 ± 0.93 nM | > 20000 | 96 ± 3 | CC50 (HEK293T cells): 33900 nM; Fold Resistance, EC50 (mutant)/EC50 (WT) [4]: 1.31 fold; EC50 [4]: 1840 ± 39.6 nM; EC50 [3]: 1400 ± 23 nM; Kd (HIV-1 protease [5]): 7100 nM |
| COc1ccc(S(=O)(=O)N(CC(C)C)C[C@@H](O)[C@H](Cc2ccccc2)NC(=O)c2ccc(OC)cc2O)cc1 [15c] | 4.68 ± 0.74 nM | > 100000 | 92 ± 5 | – |
| COc1ccc(S(=O)(=O)N(CC(C)C)C[C@@H](O)[C@H](Cc2ccccc2)NC(=O)c2ccc(O)c(O)c2)cc1 [15d] | 0.0059 ± 0.0007 nM | > 20000 | 100 | CC50 (HEK293T cells): 38200 nM; EC50 [4]: 402 ± 47.3 nM; Effectivity in single-round infection assay compared with DRV [3]: equipotent with DRV; EC50 [3]: 15.4 ± 2.17 nM |
| COc1ccc(S(=O)(=O)N(CC(C)C)C[C@@H](O)[C@H](Cc2ccccc2)NC(=O)c2ccc(O)cc2O)cc1 [15e] | 0.3 ± 0.08 nM | 78800 | 75 ± 6 | – |
| COc1ccc(S(=O)(=O)N(CC(C)C)C[C@@H](O)[C@H](Cc2ccccc2)NC(=O)c2cc(O)cc(O)c2)cc1 [15f] | 0.0024 ± 0.0004 nM | – | 100 | Enhancement of enzymatic inhibitory activity compared with DRV (HIV-1 protease [1]): over 200 fold; Fold Resistance, EC50 (mutant)/EC50 (WT) [4]: 1.57 fold; EC50 [4]: 45.5 ± 12.1 nM; Effectivity in single-round infection assay compared with DRV [3]: equipotent with DRV; EC50 [3]: 28.9 ± 9.21 nM |
| COc1ccc(S(=O)(=O)N(CC(C)C)C[C@@H](O)[C@H](Cc2ccccc2)NC(=O)c2cc(O)c(O)c(O)c2)cc1 [15g] | 1.13 ± 0.23 nM | > 100000 | 99 ± 1 | – |
| COc1ccc(S(=O)(=O)N(CC(C)C)C[C@@H](O)[C@H](Cc2ccccc2)NC(=O)c2cc(OC)c(O)c(OC)c2)cc1 [15h] | 0.08 ± 0.03 nM | 84700 | 99 ± 2 | – |
| COc1ccc(S(=O)(=O)N(CC(C)C)C[C@@H](O)[C@H](Cc2ccccc2)NC(=O)c2cc(OC)c(OC)cc2O)cc1 [15i] | 1.41 ± 0.43 nM | > 100000 | – | – |
| CC(C)CN(C[C@@H](O)[C@H](Cc1ccccc1)NC(=O)c1ccccc1O)S(=O)(=O)c1ccc(N)cc1 [16a] | 0.54 ± 0.11 nM | > 100000 | 100 | Effectivity in single-round infection assay compared with DRV [3]: equipotent with DRV |
| CC(C)CN(C[C@@H](O)[C@H](Cc1ccccc1)NC(=O)c1ccc(Cl)cc1O)S(=O)(=O)c1ccc(N)cc1 [16b] | 0.31 ± 0.08 nM | > 100000 | 98 ± 2 | – |
| COc1ccc(C(=O)N[C@@H](Cc2ccccc2)[C@H](O)CN(CC(C)C)S(=O)(=O)c2ccc(N)cc2)c(O)c1 [16c] | 4.14 ± 1.38 nM | > 100000 | 90 ± 6 | – |
| CC(C)CN(C[C@@H](O)[C@H](Cc1ccccc1)NC(=O)c1ccc(O)c(O)c1)S(=O)(=O)c1ccc(N)cc1 [16d] | 1.63 ± 0.33 nM | > 100000 | 100 | Effectivity in single-round infection assay compared with DRV [3]: equipotent with DRV |
| CC(C)CN(C[C@@H](O)[C@H](Cc1ccccc1)NC(=O)c1ccc(O)cc1O)S(=O)(=O)c1ccc(N)cc1 [16e] | 0.43 ± 0.08 nM | > 100000 | 75 ± 8 | – |
| CC(C)CN(C[C@@H](O)[C@H](Cc1ccccc1)NC(=O)c1cc(O)cc(O)c1)S(=O)(=O)c1ccc(N)cc1 [16f] | 0.27 ± 0.03 nM | > 100000 | 99 ± 2 | – |
| CC(C)CN(C[C@@H](O)[C@H](Cc1ccccc1)NC(=O)c1cc(O)c(O)c(O)c1)S(=O)(=O)c1ccc(N)cc1 [16g] | 68 nM and 68.2 nM | 57600 | 55 ± 6 | – |
| COc1cc(C(=O)N[C@@H](Cc2ccccc2)[C@H](O)CN(CC(C)C)S(=O)(=O)c2ccc(N)cc2)cc(OC)c1O [16h] | 0.04 ± 0.003 nM | > 100000 | 99 ± 3 | – |
| COc1cc(O)c(C(=O)N[C@@H](Cc2ccccc2)[C@H](O)CN(CC(C)C)S(=O)(=O)c2ccc(N)cc2)cc1OC [16i] | 0.6 ± 0.18 nM | > 100000 | – | – |
| CSc1ccc(S(=O)(=O)N(CC(C)C)C[C@@H](O)[C@H](Cc2ccccc2)NC(=O)c2ccccc2O)cc1 [17a] | 3.97 ± 0.41 nM | > 100000 | – | – |
| CSc1ccc(S(=O)(=O)N(CC(C)C)C[C@@H](O)[C@H](Cc2ccccc2)NC(=O)c2ccc(Cl)cc2O)cc1 [17b] | 2.79 ± 0.44 nM | > 100000 | – | – |
| COc1ccc(C(=O)N[C@@H](Cc2ccccc2)[C@H](O)CN(CC(C)C)S(=O)(=O)c2ccc(SC)cc2)c(O)c1 [17c] | 8.21 ± 1.2 nM | > 100000 | – | – |
| CSc1ccc(S(=O)(=O)N(CC(C)C)C[C@@H](O)[C@H](Cc2ccccc2)NC(=O)c2ccc(O)c(O)c2)cc1 [17d] | 0.0076 ± 0.0029 nM | > 100000 | 100 | Effectivity in single-round infection assay compared with DRV [3]: equipotent with DRV |
| CSc1ccc(S(=O)(=O)N(CC(C)C)C[C@@H](O)[C@H](Cc2ccccc2)NC(=O)c2ccc(O)cc2O)cc1 [17e] | 0.4 ± 0.08 nM | > 100000 | – | – |
| CSc1ccc(S(=O)(=O)N(CC(C)C)C[C@@H](O)[C@H](Cc2ccccc2)NC(=O)c2cc(O)cc(O)c2)cc1 [17f] | 0.0066 ± 0.0021 nM | > 100000 | 100 | Effectivity in single-round infection assay compared with DRV [3]: equipotent with DRV |
| COc1cc(C(=O)N[C@@H](Cc2ccccc2)[C@H](O)CN(CC(C)C)S(=O)(=O)c2ccc(SC)cc2)cc(OC)c1O [17h] | 0.32 ± 0.03 nM | > 100000 | – | – |
| COc1cc(O)c(C(=O)N[C@@H](Cc2ccccc2)[C@H](O)CN(CC(C)C)S(=O)(=O)c2ccc(SC)cc2)cc1OC [17i] | 4.71 ± 0.18 nM | > 100000 | – | – |
| CC(C)CN(C[C@@H](O)[C@H](Cc1ccccc1)NC(=O)O[C@H]1CO[C@H]2OCC[C@H]21)S(=O)(=O)c1ccc(N)cc1 [DRV, Darunavir, reference compound] | – | – | 100 | CC50 at 24 h [2]: > 100000 nM; EC50 [4]: 136.8 ± 1.12 nM; EC50 [3]: 1.8 ± 0.73 nM |
| O=c1oc2cc(/C=C/c3ccc(O)c(O)c3)oc(=O)c2c2cc(O)c(O)cc12 [Phelligridin D] | – | – | – | IC50 [6]: 10900 nM; IC50 [7]: 10300 nM; IC50 [8]: 8800 nM |
